# Measured values published in patent publication US20030069194A1, “Inhibition of viral replication by targeting RNA-DNA complexes” (priority 2001, published 2003).
# Structures can show the parent of a compound that is named as a salt.
# Assays:
# [1] = system: 18C-18R duplex (RNase H substrate of HIV-1 RT); assay: RT-induced RNase H cleavage of the 18C-18R duplex (gel assay); assay type: biochemical; conditions: 18C-18R duplex; aminoglycosides 312.5 μM; FIG. 1b, 1d
# Description: The first model oligonucleotide was a 18mer chimeric duplex (18C-18R). 18C-18R mimics a RNase H substrate during minus-strand strong-stop synthesis. (FIG. 1a). Mueller, U. et al. Crystal structure of an eight-base pair duplex containing the 3′-DNA RNA-5′ junction formed during initiation of minus-strand synthesis of HIV replication, Biochemistry 37,12005-12011 (1998). […] Note that RT cleaves the RNA strand (18R) opposite the chimeric RNA-DNA strand (18C) at three sites (FIGS. 1a, b). The primary cleavage site lies between base positions +1 and +2 (counting from the RNA-DNA junction in the 5′ direction on the cleaved RNA strand). Two other minor cleavage sites lie between positions +3 and +4 and between positions −1 and +1, with the former site being cleaved to a greater extent than the latter site. Götte, M. et al., HIV-1 Reverse transcriptase-associated RNase H cleaves RNA/RNA in arrested complexes: Implications for the mechanism by which RNase H discriminates between RNA/RNA and RNA/DNA, EMBO J. 14, 833-841 (1995).
# (§1) Recombinant HIV-1 RT p66 was isolated from Escherichia coli JM 109. Pandey, V. N. et al, Role of methionine 184 of human immunodeficiency virus type-1 reverse transcriptase in the polymerase function and fidelity of DNA synthesis, Biochemistry 35, 2168-2179 (1996). The 18C and 18R oligonucleotides were purchased from Dharmacon Research, Inc. (Lafayette, Colo.). The 18D oligonucleotide was obtained from Integrated DNA Technologies, Inc. (Coralville, Iowa). Neomycin trisulfate trihydrate, the free base of tobramycin, paromomycin sulfate, and kanamycin B sulfate were obtained from Fluka, while kanamycin A monosulfate and ribostamycin sulfate dihydrate were obtained from Sigma.
# (§2) The RNase H activity of RT was assayed in a 10 μl reaction mixture containing 10 mM PIPES (pH 6.0) and 5 mM MgCl2. Ten pmol of either 18C or 18R were ^32P-labeled at the 5′ end using T4 polynucleotide kinase. For the cleavage experiments, different aminoglycosides were mixed with 0.5 μM of target duplex. A small amount of RT, 0.1 μg, was then added to initiate the cleavage reaction. After incubation at 37° C. for 30 min, the reaction was stopped by addition of 3 M urea containing a mixture of bromophenol blue and xylene cyanol. Denaturation of the 18C-18R duplex required the addition of 5 M urea as well as heating at 95° C. for 5 min prior to gel loading. The cleavage products were resolved in a 10% polyacrylamide gel containing 8 M urea. The gels were subsequently analyzed using a phosphoimager (Molecular Dynamics, Inc.).
# [2] = system: 18C-18D duplex (RNase H substrate of HIV-1 RT); assay: RT-induced RNase H cleavage of the 18C-18D duplex (gel assay); assay type: biochemical; conditions: 18C-18D duplex; aminoglycosides 2.0 mM; FIG. 2b, 2c
# Description: The second model oligonucleotide was a 18mer chimeric duplex (18C-18D). 18C-18D mimics a RNase H substrate during plus-strand strong-stop synthesis (FIG. 2a), which occurs following minus-strand DNA synthesis. Fedoroff, O. Y., et. al., B. R. Structural variation among retroviral primer-DNA junctions: Solution structure of the HIV-1 (−)-strand Okazaki fragment r(gcca)d(CTGC)-d(GCAGTGGC), Biochemistry 35,11070-11080 (1996). For the 18C-18D duplex, RT cleaves the RNA portion of the chimeric strand (18C) opposite the DNA strand (18D) at only a single site (FIGS. 2a, b), in marked contrast to the three cleavage sites observed in the 18C-18Rduplex. This unique cleavage site lies between base positions +1 and +2 (counting from the RNA-DNA junction in the 5′ direction on the cleaved chimeric strand). Furfine, E. S. & Reardon, J. E., Human immunodeficiency virus reverse transcriptase ribonuclease H: Specificity of tRNA(Lys3)-primer excision, Biochemistry 30, 7041-7046 (1991); Smith, J. S. & Roth, M. J. Specificity of human immunodeficiency virus-1 reverse transcriptase-associated ribonuclease H in removal of the minus-strand primer tRNA(Lys3), J. Biol. Chem. 267, 15071-15079 (1992). […] As noted above for the 18C-18R duplex, this hierarchy of cleavage inhibition correlates with the relative binding affinities of the three ligands for the 18C-18D duplex.
# as §1
# as §2, with “containing 110” for “containing 10”
# To determine the nature of the aminoglycoside-induced inhibition of RT-catalyzed RNase H cleavage, the impact of RT concentration on neomycin-induced inhibition was examined. […] In the presence of 1 mM neomycin, increasing the concentrations of RT overcomes the RNase H inhibitory effect of the drug.
SMILES,hierarchy of the extent of inhibition of RT-induced cleavage [1],hierarchy of inhibition of RT-induced cleavage [2]
"NC[C@H]1O[C@H](O[C@H]2[C@H](O)[C@@H](O[C@H]3O[C@H](CO)[C@@H](O)[C@H](N)[C@H]3O)[C@H](N)C[C@@H]2N)[C@H](O)[C@@H](O)[C@@H]1O.O=S(=O)(O)O [kanamycin A, kanamycin A monosulfate]",neomycin>paromomycin>tobramycin>kanamycin B>ribostamycin>>kanamycin A,–
"NC[C@H]1O[C@H](O[C@H]2[C@H](O)[C@@H](O[C@H]3O[C@H](CO)[C@@H](O)[C@H](N)[C@H]3O)[C@H](N)C[C@@H]2N)[C@H](N)[C@@H](O)[C@@H]1O.O=S(=O)(O)O [kanamycin B, kanamycin B sulfate]",neomycin>paromomycin>tobramycin>kanamycin B>ribostamycin>>kanamycin A,–
"NC[C@H]1O[C@H](O[C@H]2[C@H](O[C@@H]3O[C@H](CO)[C@@H](O)[C@H]3O)[C@@H](O)[C@H](N)C[C@@H]2N)[C@H](N)[C@@H](O)[C@@H]1O [ribostamycin, ribostamycin sulfate dihydrate]",neomycin>paromomycin>tobramycin>kanamycin B>ribostamycin>>kanamycin A,neomycin>paromomycin>ribostamycin
NC[C@H]1O[C@H](O[C@H]2[C@H](O)[C@@H](O[C@H]3O[C@H](CO)[C@@H](O)[C@H](N)[C@H]3O)[C@H](N)C[C@@H]2N)[C@H](N)C[C@@H]1O [tobramycin],neomycin>paromomycin>tobramycin>kanamycin B>ribostamycin>>kanamycin A,–
